Here are results for ten compounds from EP0703222A1, “3-AMINOAZEPINE COMPOUND AND PHARMACEUTICAL USE THEREOF” (YOSHITOMI PHARMACEUTICAL INDUSTRIES, LTD., priority 1993, dated 1994).

One experiment has as its target T1, CCK-B receptor (Rattus norvegicus, UniProt P30553).
T1 construct: cerebral cortex from rat was prepared and suspended in a buffer; from tissue; host or cells: rat cerebral cortex membrane suspension
T1 sequence (P30553 1-452): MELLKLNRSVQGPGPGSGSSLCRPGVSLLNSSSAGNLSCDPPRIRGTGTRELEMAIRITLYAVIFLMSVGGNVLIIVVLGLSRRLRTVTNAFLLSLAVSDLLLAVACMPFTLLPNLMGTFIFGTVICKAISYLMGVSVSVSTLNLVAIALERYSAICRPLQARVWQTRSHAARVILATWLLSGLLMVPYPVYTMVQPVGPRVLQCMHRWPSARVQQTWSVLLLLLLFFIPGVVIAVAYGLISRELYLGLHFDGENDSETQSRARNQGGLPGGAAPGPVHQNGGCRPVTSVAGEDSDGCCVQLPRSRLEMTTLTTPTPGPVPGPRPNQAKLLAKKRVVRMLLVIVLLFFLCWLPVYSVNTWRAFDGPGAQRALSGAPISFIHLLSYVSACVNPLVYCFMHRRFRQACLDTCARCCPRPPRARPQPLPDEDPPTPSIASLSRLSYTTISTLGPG
Briefly: CCK-B receptor binding test (brain). The note with it: for Ki: rat cerebral cortex membranes, 125I-CCK-8, 20°C, 30 minutes, read-out: binding affinity (Ki,nM) CCK-B; for selectivity (A/B): ratio CCK-A / CCK-B binding affinity. Here is the method:
Experimental Example 2 : CCK-B receptor binding test (brain)
In the case of the central nervous system, cerebral cortex from rat was prepared and suspended in a buffer, pH 6.5, containing 5 mM magnesium chloride, 1 mM EGTA [ethylene glycol bis(2-aminoethylether)tetraacetic acid], 360 mM sodium chloride, 15 mM potassium chloride, 20 mM HEPES (N-2-hydroxyethylpiperazine-N'-2-ethanesulfonic acid) and 0.25 mg/ml bacitracin. For binding assay, 50 µl of a buffer (for total binding), unlabeled CCK-8 sulfate (for nonspecific binding) having a final concentration of 1 µM or a test compound (for determining inhibition of ¹²⁵I-CCK binding) and 50 µl of ¹²⁵I-CCK-8 (63-67 TBq/mmol, 40,000 - 50,000 cpm) were added to a membrane suspension (450 µl, containing 100 µg protein). The reaction mixture was incubated at 20°C for 30 minutes, filtered by suction through a glass fiber filter (Whatman GF/B), and immediately thereafter washed 3 times with ice-cooled Tris buffer (2.5 ml). The radioactive concentration on the filter was measured.
(§1) Inhibition (%) = 100 -((binding when compound added - nonspecific binding))/((total binding - nonspecific binding))× 100 [formula]

The target of a further experiment is T2, CCK-A receptor (Rattus norvegicus, UniProt P30551).
T2 construct: The whole pancreas was removed from a male rat; from tissue; host or cells: rat pancreas membrane homogenate
T2 sequence (P30551 1-444): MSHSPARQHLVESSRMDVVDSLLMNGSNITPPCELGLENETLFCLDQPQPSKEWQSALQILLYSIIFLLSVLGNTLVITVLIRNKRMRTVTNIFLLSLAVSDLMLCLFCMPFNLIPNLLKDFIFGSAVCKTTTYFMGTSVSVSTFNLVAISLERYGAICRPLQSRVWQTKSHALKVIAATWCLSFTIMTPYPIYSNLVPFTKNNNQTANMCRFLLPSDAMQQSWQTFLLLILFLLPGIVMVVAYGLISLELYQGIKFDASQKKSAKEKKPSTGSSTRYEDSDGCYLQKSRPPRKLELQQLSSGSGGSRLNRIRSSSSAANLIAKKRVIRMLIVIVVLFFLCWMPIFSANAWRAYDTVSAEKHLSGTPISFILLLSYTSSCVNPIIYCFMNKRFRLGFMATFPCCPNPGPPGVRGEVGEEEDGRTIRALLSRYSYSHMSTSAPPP
The experiment in a line: CCK-A receptor binding test (pancreas). The note with it: for Ki: rat pancreas membranes, 125I-CCK-8, 20°C, 30 minutes, read-out: binding affinity (Ki,nM) CCK-A; for affinity for CCK-A receptor (in words): summary of the binding results in the text. Here is the method:
Experimental Example 1 : CCK-A receptor binding test (pancreas)
The whole pancreas was removed from a male rat. The fat tissues were removed and the pancreas was homogenized (Brinkman Polytron PT20) in 50 mM Tris hydrochloric acid (pH 7.5). The homogenate was filtered through a nylon cloth (120 mesh) and centrifuged at 50,000 × g for 12 minutes. The obtained sediment was homogenized in Tris buffer as in the above and centrifuged. The sediment was suspended in a buffer for binding assay [50 mM Tris-HCl (pH 7.2) containing 5 mM magnesium chloride, 5 mM dithiothreitol, 2 mg/ml bovine serum albumin, 0.1 mg/ml bacitracin and 0.14 mg/ml trypsin inhibitor (soybean)] and used as a receptor source.
For binding assay, 50 µl of a buffer (for total binding), unlabeled CCK-8 sulfate (for nonspecific binding) having a final concentration of […] or a test compound (for determining inhibition of ¹²⁵I-CCK binding) and 50 µl of ¹²⁵I-CCK-8 (63-67 TBq/mmol, 40,000-50,000 cpm) were added to a membrane suspension (450 µl, containing 100 µg protein). The reaction mixture was incubated at 20°C for 30 minutes, filtered by suction through a glass fiber filter (Whatman GF/B), and immediately thereafter washed 3 times with ice-cooled Tris buffer (2.5 ml). The radioactive concentration on the filter was measured.
as §1

By Ki is commonly meant a measure of affinity in units of concentration, obtained from inhibition or displacement.

Regarding `Cc1ccccc1C(=O)CN1C(=O)C(NC(=O)Nc2ccccc2Cl)C=C(c2ccccc2)c2ccccc21` (single isomer, unassigned; (-)) [Example 74, (-)-1-(2-chlorophenyl)-3-(1-(2'-methylphenacyl)-2-oxo-5-phenyl-2,3-dihydro-1H-1-benzazepin-3-yl)urea], at CCK-B receptor, the inhibition constant Ki stood at 2.4 nM and the “selectivity (A/B)” value is 120. The Ki at CCK-A receptor is 290 nM.
`CCOC(=O)CN1C(=O)C(NC(=O)Nc2cccc(C)c2)C=C(c2ccccc2)c2ccccc21` (single isomer, unassigned; (-)) [Example 46, (-)-1-(1-ethoxycarbonylmethyl-2-oxo-5-phenyl-2,3-dihydro-1H-1-benzazepin-3-yl)-3-(3-methylphenyl)urea]: at CCK-B receptor, the Ki was 0.87 nM and the “selectivity (A/B)” value turned out to be 110. The inhibition constant Ki on CCK-A receptor stood at 100 nM.
In the same order, the values of `Cc1ccccc1NC(=O)NC1C=C(c2ccccc2)c2ccccc2N(CC(=O)c2ccccc2C)C1=O` (single isomer, unassigned; (-)) [Example 66, (-)-1-(1-(2'-methylphenacyl)-2-oxo-5-phenyl-2,3-dihydro-1H-1-benzazepin-3-yl)-3-(2-methylphenyl)urea] are 2.5 nM, 124 and 310 nM.
For the compound `Cc1ccccc1C(=O)CN1C(=O)C(NC(=O)c2cc3ccccc3[nH]2)C=C(c2ccccc2)c2ccccc21` (single isomer, unassigned; (+)) [Example 81, (+)-N-(1-(2'-methylphenacyl)-2-oxo-5-phenyl-2,3-dihydro-1H-1-benzazepin-3-yl)-2-indole carboxamide], at CCK-B receptor, the inhibitory constant (Ki) is above 1000 nM and the “selectivity (A/B)” value is reported as below 0.042. For the same compound, on CCK-A receptor, the Ki was 42 nM and the “affinity for CCK-A receptor (in words)” value is given as “strong, selective affinity for CCK-A receptor”.
With `COc1ccc(NC(=O)NC2C=C(c3ccccc3)c3ccccc3N(CC(=O)c3ccccc3C)C2=O)cc1` (single isomer, unassigned; (-)) [Example 68, (-)-1-(4-methoxyphenyl)-3-(1-(2'-methylphenacyl)-2-oxo-5-phenyl-2,3-dihydro-1H-1-benzazepin-3-yl)urea], on CCK-B receptor, the Ki was 1.1 nM and the “selectivity (A/B)” value amounted to 140. The Ki on CCK-A receptor came out at 150 nM.
Regarding `CN1C(=O)C(NC(=O)c2cc3ccccc3[nH]2)C=C(c2ccccc2)c2ccccc21` (single isomer, unassigned; (+)) [Example 36, (+)-N-(1-methyl-2-oxo-5-phenyl-2,3-dihydro-1H-1-benzazepin-3-yl)-2-indolecarboxamide], on CCK-B receptor, the Ki was above 1000 nM and the “selectivity (A/B)” value was below 0.0047. For the same compound, at CCK-A receptor, the inhibitory constant (Ki) was 4.7 nM and the “affinity for CCK-A receptor (in words)” value is “strong, selective affinity for CCK-A receptor”.
As to `CCOC(=O)CN1C(=O)C(NC(=O)Nc2ccc(C)cc2)C=C(c2ccccc2)c2ccccc21` (single isomer, unassigned; (-)) [Example 48, (-)-1-(1-ethoxycarbonylmethyl-2-oxo-5-phenyl-2,3-dihydro-1H-1-benzazepin-3-yl)-3-(4-methylphenyl)urea], at CCK-B receptor, the Ki stood at 2.1 nM and the “selectivity (A/B)” value turned out to be 100. For the same compound, on CCK-A receptor, the Ki was 210 nM.
As for `CCOC(=O)CN1C(=O)C(NC(=O)Nc2cccc(OC)c2)C=C(c2ccccc2)c2ccccc21` (single isomer, unassigned; (-)) [Example 52, (-)-1-(1-ethoxycarbonylmethyl-2-oxo-5-phenyl-2,3-dihydro-1H-1-benzazepin-3-yl)-3-(3-methoxyphenyl)urea], at CCK-B receptor, the inhibitory constant (Ki) came to 0.92 nM and the “selectivity (A/B)” value was found to be 120. For the same compound, on CCK-A receptor, the inhibitory constant (Ki) was determined as 110 nM.
With `Cc1cccc(NC(=O)N[C@@H]2N=C(c3ccccc3)c3ccccc3N(C)C2=O)c1` [Example L-365260, (R)-N-(2,3-dihydro-1-methyl-2-oxo-5-phenyl-1H-1,4-benzodiazepin-3-yl)-N'-(3-methylphenyl)urea, reference compound], at CCK-B receptor, the Ki came to 19 nM and the “selectivity (A/B)” value was found to be 21. Also, the inhibition constant (Ki) at CCK-A receptor was found to be 390 nM.
Taken in the same sequence, the figures for `Cc1ccc(NC(=O)NC2C=C(c3ccccc3)c3ccccc3N(CC(=O)c3ccccc3C)C2=O)cc1` (single isomer, unassigned; (-)) [Example 64, (-)-1-(1-(2'-methylphenacyl)-2-oxo-5-phenyl-2,3-dihydro-1H-1-benzazepin-3-yl)-3-(4-methylphenyl)urea] were 1.1 nM, 180 and 200 nM.
